Source: patent US20040116493A1, “Anti-helicobacterial agents” (priority 2000, published 2004)
In brackets after ≈: the same amount, converted by molar mass. Several values for one entry are separate records, joined by “and”; a condition that tells them apart may be missing. Equal values may be shown once.

How the values were obtained:
[1] = system: Enterococcus faecalis ATCC 19433; experiment: Agar plate dilution method, MIC; format: cell-based; settings: ATCC19433; Enterococcus faecalis ATCC 19433, 10% horse serum-added MH agar, overnight
Description: (§1) Firstly, the thus-synthesized compound of the present invention (2) was studied for its activity in vitro. For antibacterial activity, an agar plate dilution method was employed. The agar plate dilution method is well known in the art.
(§2) Specifically, a test compound containing the compound of the present invention was dissolved into dimethylsulfoxide, and serially diluted by two fold each time with sterile distilled water to prepare an antibacterial activity sample for the test compound containing the compound of the present invention. A BHI (Brain Heart Infusion) agar with 7% horse blood was used as medium for investigation of the antibacterial activity against H. pylori and H. felis. 1 ml of the sample of the compound of the present invention was added to 9 ml of the medium, followed by mixing to prepare an agar plate for measuring the antibacterial activity. MH (Mueller Hinton) agar medium was used to investigate the antibacterial activities against Pseudomonas aeruginosa, Escherichia coli, Klebsiella pneumoniae, and Staphylococcus aureus; and 10% horse serum-added MH agar medium was used to investigate the antibacterial activities against Streptococcus pneumoniae and Enterococcus faecalis. In both cases, agar plates for measuring the antibacterial activities are prepared in a manner similar to that for H. pylori and H. felis. For H. pylori and H. felis out of the bacteria to be subjected to the tests, 1 ml of each frozen bacterium stock solution was inoculated to 9 ml of 7% bovine fetal serum-added BHI liquid medium, and cultured at 37° C. for 48 hours in a 10% CO2 incubator. Each culture bacterium solution was prepared with the same medium to 10^6 CFU/ml (colony formation unit/milliliter). 5 μl of the prepared bacterium solution was inoculated to the antibacterial activity measuring agar medium, and cultured at 37° C. for 4 days in a 10% CO2 incubator. MH liquid medium was used for Pseudomonas aeruginosa, Escherichia coli, Klebsiella pneumoniae, and Staphylococcus aureus; and 10% horse serum-added MH liquid medium was used for Streptococcus pneumoniae and Enterococcus faecalis. In both cases, 1 ml of each frozen bacterium stock solution was inoculated to 9 ml of the medium, and cultured at 37° C. overnight. Each culture bacterium solution was prepared with the same medium as that had been used in the incubation to 10^6 CFU/ml. 5 μl of the prepared bacterium solution was inoculated to the antibacterial activity measuring agar medium, and cultured at 37° C. overnight.
(§3) The results are represented by MIC (Minimum Inhibitory Concentration).

[2] = system: Helicobacter felis ATCC 49179; experiment: Agar plate dilution method, MIC; format: cell-based; settings: ATCC49179, 96 h; Helicobacter felis ATCC 49179, BHI agar with 7% horse blood, 4 days
Description: as §1, §2, §3

[3] = system: Helicobacter pylori ATCC 43504; experiment: Agar plate dilution method, MIC; format: cell-based; settings: ATCC43504, 96 h; Helicobacter pylori ATCC 43504, BHI agar with 7% horse blood, 4 days
Description: as §1, §2, §3

[4] = system: Helicobacter pylori ATCC 43629; experiment: Agar plate dilution method, MIC; format: cell-based; settings: ATCC43629, 96 h; Helicobacter pylori ATCC 43629, BHI agar with 7% horse blood, 4 days
Description: as §1, §2, §3

[5] = system: Helicobacter pylori SR-9043; experiment: Agar plate dilution method, MIC; format: cell-based; settings: SR9043, 96 h; Helicobacter pylori SR-9043, BHI agar with 7% horse blood, 4 days
Description: as §1, §2, §3

[6] = system: Staphylococcus aureus FDA 209P; experiment: Agar plate dilution method, MIC; format: cell-based; settings: FDA209P, MH agar, overnight
Description: as §1, §2, §3

[7] = system: Streptococcus pneumoniae SR-1003; experiment: Agar plate dilution method, MIC; format: cell-based; settings: SR1003; Streptococcus pneumoniae SR-1003, 10% horse serum-added MH agar, overnight
Description: as §1, §2, §3

[8] = system: Escherichia coli NIHJ JC-2; experiment: Agar plate dilution method, MIC; format: cell-based; settings: NIHJJC2; Escherichia coli NIHJ JC-2, MH agar, overnight
Description: as §1, §2
(§4) The antibacterial activity of the compound against a subject bacterium (MIC: Minimum Inhibitory Concentration) was a maximum dilution ratio at which the growth of inoculated bacteria was not observed by the unaided eye.
as §3

Helicobacter pylori SS1 = experiment: Agar plate dilution method, MIC; format: cell-based; settings: 96 h; Helicobacter pylori SS1, BHI agar with 7% horse blood, 4 days
Description: as §1, §2, §4, §3

[9] = system: Klebsiella pneumoniae ATCC 27736; experiment: Agar plate dilution method, MIC; format: cell-based; settings: ATCC27736; Klebsiella pneumoniae ATCC 27736, MH agar, overnight
Description: as §1, §2, §4, §3

[10] = system: Pseudomonas aeruginosa ATCC 25619; experiment: Agar plate dilution method, MIC; format: cell-based; settings: ATCC25619; Pseudomonas aeruginosa ATCC 25619, MH agar, overnight
Description: as §1, §2, §4, §3

H. pylori ATCC 43504 = experiment: In vivo bacterial eradication test in infected mice; set-up: species or system mice of the ICR strain; settings: for Bacterial eradication number / bacterial eradication % / Number of each bacterium in stomach: oral, three days; for Bacterial eradication number / bacterial eradication %: 3 samples; for Number of each bacterium in stomach: individual mice, limit of detection log 1.3; for bacterial eradication effect: 40 mg/kg
Description: Next, the compound of the present invention was studied as to whether or not it had bacterial eradication activity in vivo. 5-week old mice of the ICR strain from CLEA Japan, Inc. were used. These mice were infected with H. pylori ATCC 43504 (day 0). After the mice had been confirmed to be infected with H. pylori, the dose indicated in Table 3 was administered into the mice twice a day (AM 9 and PM 5) from day 20 to day 22. At day 23 which was the day after the last day of the administration, the mice were dissected and the number of bacteria within their stomachs were counted. The bacteria count measurement was conducted in the following manner. Phosphate buffer was added to the collected stomachs to prepare homogenates. These homogenates were inoculated to 7% horse blood-added agar medium to which various drugs were added in order to suppress the growth of bacteria other than the genus Helicobacter, and cultured at 37° C. for 7 days in a 10% CO2 incubator. The bacterial eradication activity was judged by detecting the presence or absence of the growth of the bacteria.

CC1(C)S[C@@H]2[C@H](NC(=O)[C@H](N)c3ccc(O)cc3)C(=O)N2[C@H]1C(=O)O [Amoxicillin, amoxicillin]
MIC [1]: 0.39 µg/mL (≈ 1.07 µM) | MIC [2]: 0.1 µg/mL (≈ 0.274 µM) | MIC [3]: 0.025 µg/mL (≈ 0.0684 µM) | MIC [4]: 0.1 µg/mL (≈ 0.274 µM) | MIC [5]: 0.39 µg/mL (≈ 1.07 µM) | MIC [6]: 0.05 µg/mL (≈ 0.137 µM) | MIC [7]: 0.05 µg/mL (≈ 0.137 µM) | MIC [8]: 6.25 µg/mL (≈ 17.1 µM) | MIC (Helicobacter pylori SS1): 0.39 µg/mL (≈ 1.07 µM) | MIC [9]: 0.2 µg/mL (≈ 0.547 µM) | MIC [10]: > 25 µg/mL | Bacterial eradication number (H. pylori ATCC 43504; 20 mg/kg twice a day): 1 | bacterial eradication % (H. pylori ATCC 43504; 20 mg/kg twice a day): 33% | Number of each bacterium in stomach (H. pylori ATCC 43504; 20 mg/kg twice a day): 1.60 log CFU/stomach and < 1.3 log CFU/stomach | bacterial eradication effect (H. pylori ATCC 43504): not observed | Bacterial eradication number (H. pylori ATCC 43504; 40 mg/kg twice a day): 2 | bacterial eradication % (H. pylori ATCC 43504; 40 mg/kg twice a day): 67% | Number of each bacterium in stomach (H. pylori ATCC 43504; 40 mg/kg twice a day): <1.3, <1.3, log CFU/stomach (2×) and 1.78 log CFU/stomach

CC[C@H]1OC(=O)[C@H](C)[C@@H](O[C@H]2C[C@@](C)(OC)[C@@H](O)[C@H](C)O2)[C@H](C)[C@@H](O[C@@H]2O[C@H](C)C[C@H](N(C)C)[C@H]2O)[C@](C)(OC)C[C@@H](C)C(=O)[C@H](C)[C@@H](O)[C@]1(C)O [Clarithromycin, clarithromycin]
MIC [1]: > 25 µg/mL | MIC [2]: < 0.025 µg/mL | MIC [3]: 0.025 µg/mL (≈ 0.0334 µM) | MIC [4]: 0.1 µg/mL (≈ 0.134 µM) | MIC [5]: > 25 µg/mL | MIC [6]: 0.05 µg/mL (≈ 0.0668 µM) | MIC [7]: 0.0125 µg/mL (≈ 0.0167 µM) | MIC [8]: 12.5 µg/mL (≈ 16.7 µM) | MIC (Helicobacter pylori SS1): 0.025 µg/mL (≈ 0.0334 µM) | MIC [9]: > 25 µg/mL | MIC [10]: > 25 µg/mL | Bacterial eradication number (H. pylori ATCC 43504; 20 mg/kg twice a day): 0 (0) | bacterial eradication % (H. pylori ATCC 43504; 20 mg/kg twice a day): 0 (0) % | Number of each bacterium in stomach (H. pylori ATCC 43504; 20 mg/kg twice a day): 2.79 log CFU/stomach and 2.89 log CFU/stomach and 3.37 log CFU/stomach | bacterial eradication effect (H. pylori ATCC 43504): not observed | Bacterial eradication number (H. pylori ATCC 43504; 40 mg/kg twice a day): 0 (0) | bacterial eradication % (H. pylori ATCC 43504; 40 mg/kg twice a day): 0 (0) % | Number of each bacterium in stomach (H. pylori ATCC 43504; 40 mg/kg twice a day): 1.6, 1.6, log CFU/stomach (2×) and 2.38 log CFU/stomach

O=C1c2ccc3c4c(ccc(c24)C(=O)N1c1ccccn1)C(=O)N(c1ccccn1)C3=O [Compound 2, N,N′-bis-(2-pyridyl)naphthalene-1,4,5,8-tetracarboxylate diimide]
MIC [1]: > 25 µg/mL | MIC [2]: 0.1 µg/mL (≈ 0.238 µM) | MIC [3]: 0.2 µg/mL (≈ 0.476 µM) | MIC [4]: 0.2 µg/mL (≈ 0.476 µM) | MIC [5]: 0.39 µg/mL (≈ 0.928 µM) | MIC [6]: > 25 µg/mL | MIC [7]: > 25 µg/mL | MIC [8]: > 25 µg/mL | MIC (Helicobacter pylori SS1): 0.1 µg/mL (≈ 0.238 µM) | MIC [9]: > 25 µg/mL | MIC [10]: > 25 µg/mL | bacterial eradication effect (samples) (H. pylori ATCC 43504; 20 mg/kg): 3/3 | Bacterial eradication number (H. pylori ATCC 43504; 20 mg/kg twice a day): 3 | bacterial eradication % (H. pylori ATCC 43504; 20 mg/kg twice a day): 100% | Number of each bacterium in stomach (H. pylori ATCC 43504; 20 mg/kg twice a day): <1.3, <1.3, log CFU/stomach (2×) and <1.3 log CFU/stomach

CN1C(=O)c2ccc3c4c(ccc(c24)C1=O)C(=O)N(C)C3=O [Compound 3]
MIC [3]: 6.25 µg/mL (≈ 21.2 µM) | MIC [6]: > 25 µg/mL | MIC [8]: > 25 µg/mL | MIC [10]: > 25 µg/mL

O=C1c2ccc3c4c(ccc(c24)C(=O)N1c1nccs1)C(=O)N(c1nccs1)C3=O [Compound 4]
MIC [3]: 2.5 µg/mL (≈ 5.78 µM) | MIC [6]: > 25 µg/mL | MIC [8]: > 25 µg/mL | MIC [10]: > 25 µg/mL

O=C1c2ccccc2C(=O)N1N1C(=O)c2ccc3c4c(ccc(c24)C1=O)C(=O)N(N1C(=O)c2ccccc2C1=O)C3=O [Compound 5]
MIC [3]: 12.5 µg/mL (≈ 22.5 µM) | MIC [6]: > 25 µg/mL | MIC [8]: > 25 µg/mL | MIC [10]: > 25 µg/mL

CC(=O)OCCN1C(=O)c2ccc3c4c(ccc(c24)C1=O)C(=O)N(CCOC(C)=O)C3=O [Compound 6]
MIC [3]: 0.31 µg/mL (≈ 0.707 µM) | MIC [6]: > 25 µg/mL | MIC [8]: > 25 µg/mL | MIC [10]: > 25 µg/mL

CN(C)CCN1C(=O)c2ccc3c4c(ccc(c24)C1=O)C(=O)N(CCN(C)C)C3=O [Compound 7]
MIC [3]: 0.39 µg/mL (≈ 0.955 µM) | MIC [6]: > 25 µg/mL | MIC [8]: > 25 µg/mL | MIC [10]: > 25 µg/mL

Cc1ncc([N+](=O)[O-])n1CCO [Metronidazole, metronidazole]
MIC [1]: > 25 µg/mL | MIC [2]: 0.78 µg/mL (≈ 4.56 µM) | MIC [3]: > 25 µg/mL | MIC [4]: 3.13 µg/mL (≈ 18.3 µM) | MIC [5]: > 25 µg/mL | MIC [6]: > 25 µg/mL | MIC [7]: > 25 µg/mL | MIC [8]: > 25 µg/mL | MIC (Helicobacter pylori SS1): 0.78 µg/mL (≈ 4.56 µM) | MIC [9]: > 25 µg/mL | MIC [10]: > 25 µg/mL

CN(C)[C@@H]1C(O)=C(C(N)=O)C(=O)[C@@]2(O)C(O)=C3C(=O)c4c(O)cccc4[C@@](C)(O)[C@H]3C[C@@H]12 [Tetracycline, tetracycline]
MIC [8]: 1.56 µg/mL (≈ 3.51 µM) | MIC [9]: 3.13 µg/mL (≈ 7.04 µM) | MIC [10]: > 25 µg/mL
